Results reported in the supplement of paper PMC11208160.

Assay: recombinant UMI read abundance after kanamycin selection (control-corrected) (log10(CPM+1)); higher = more efficient recombination; extreme values may be limits of the assay; sequences stand for … in AGTGCAGAGAAAATCGGCCAGTTTTCTCTGCCTGCAGTCCGCATGCCGTGGGACCCCTTGGGTTCTAACCTGTTGCCTAGATTTATGCAGCGGACTGCCTTTCTCCCAAAGTGATAAACCGG…AGGTTGGTTTCACT; site = the 11-nt donor
Experimental: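 Pooled E. coli donor-specificity screen for the IS621 bridge recombinase. Each library member carries a reprogrammed 11-nt donor and a full-length LE bridge RNA expressed in cis from the natural promoter, with a paired donor-binding loop (8-nt LDG + 4-nt RDG) and a target-binding loop fixed to T5. It is co-electroporated with a T5 target plasmid; recombinase is induced with 0.07 mM IPTG and recombinants are selected on kanamycin. UMIs are counted as CPM, averaged over two biological replicates and corrected by the unselected control. Molecule = full bridge RNA written as DNA, built from the T5 scaffold: LDG = donor specificity nt 1-8, RDG = reverse complement of nt 8-11.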
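Further: IS621 bridge recombinase in Escherichia coli cells against a fixed T5 target plasmid.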

Going from “ACAAACCCATGGACCGGTTTTCCCGGTAATCCGTATTTGGG (site ACAAACCCTCC)” to “ACAAATCCATGGACCGGTTTTCCCGGTAATCCGTATTTGAC (site ACAAATCCTGT)”, the “recombinant UMI read abundance (log10)” value rises from 0 to 0.255.

“ACAAATCCATGGACCGGTTTTCCCGGTAATCCGTATTTGAC (site ACACATCCTGT)” and “ACAAATCCATGGACCGGTTTTCCCGGTAATCCGTATTTGAC (site ACAGATCCTGT)” are the same in “recombinant UMI read abundance (log10)” value: 0 for the first, 0 for the second.

First: ACAAATCCATGGACCGGTTTTCCCGGTAATCCGTATTTGAC (site ACATATCCTGT)
Second: ACAATCGCATGGACCGGTTTTCCCGGTAATCCGTATTTGAA (site ACAATCGCTTT)
The “recombinant UMI read abundance (log10)” value of the first is lower: 0 for the first, 2.55 for the second.

First: ACAATGTCATGGACCGGTTTTCCCGGTAATCCGTATTTGCG (site ACAATGTCTCG)
Second: ACACAAACATGGACCGGTTTTCCCGGTAATCCGTATTTGTC (site ACACAAACTGA)
The “recombinant UMI read abundance (log10)” value of the first is higher: 3.04 for the first, 2.41 for the second.

“ACACAAACATGGACCGGTTTTCCCGGTAATCCGTATTTGTC (site ACACCAACTGA)” and “ACACAAACATGGACCGGTTTTCCCGGTAATCCGTATTTGTC (site ACACGAACTGA)” are the same in “recombinant UMI read abundance (log10)” value: 0 for the first, 0 for the second.

“ACACAAACATGGACCGGTTTTCCCGGTAATCCGTATTTGTC (site ACACTAACTGA)” and “ACACAACCATGGACCGGTTTTCCCGGTAATCCGTATTTGAC (site ACACAACCTGT)” are the same in “recombinant UMI read abundance (log10)” value: 0 for the first, 0 for the second.

Compared with “ACACAACCATGGACCGGTTTTCCCGGTAATCCGTATTTGAC (site ACACACCCTGT)”, “ACACAACCATGGACCGGTTTTCCCGGTAATCCGTATTTGAC (site ACACAGCCTGT)” is higher in “recombinant UMI read abundance (log10)” value: 0 for the first, 0.668 for the second.

First: ACACAACCATGGACCGGTTTTCCCGGTAATCCGTATTTGAC (site ACACATCCTGT)
Second: ACACATCCATGGACCGGTTTTCCCGGTAATCCGTATTTGAT (site ACACATCCTAT)
The “recombinant UMI read abundance (log10)” value of the first is lower: 0 for the first, 1.34 for the second.

“ACACATCCATGGACCGGTTTTCCCGGTAATCCGTATTTGAT (site ACACATCCTCT)” and “ACACATCCATGGACCGGTTTTCCCGGTAATCCGTATTTGAT (site ACACATCCTGT)” are within 0.2 log units of each other in “recombinant UMI read abundance (log10)” value: 0.0152 for the first, 0 for the second.

Compared with “ACACATCCATGGACCGGTTTTCCCGGTAATCCGTATTTGAT (site ACACATCCTTT)”, “ACACATGCATGGACCGGTTTTCCCGGTAATCCGTATTTGAC (site ACACATACTGT)” is higher in “recombinant UMI read abundance (log10)” value: 0.0785 for the first, 2.59 for the second.

First: ACACATGCATGGACCGGTTTTCCCGGTAATCCGTATTTGAC (site ACACATCCTGT)
Second: ACACATGCATGGACCGGTTTTCCCGGTAATCCGTATTTGAC (site ACACATGCTGT)
The “recombinant UMI read abundance (log10)” value of the first is lower: 1.71 for the first, 2.6 for the second.

“ACACATGCATGGACCGGTTTTCCCGGTAATCCGTATTTGAC (site ACACATTCTGT)” and “ACACATTCATGGACCGGTTTTCCCGGTAATCCGTATTTGAC (site ACACATACTGT)” are within 0.2 log units of each other in “recombinant UMI read abundance (log10)” value: 0.598 for the first, 0.745 for the second.

Compared with “ACACATTCATGGACCGGTTTTCCCGGTAATCCGTATTTGAC (site ACACATCCTGT)”, “ACACATTCATGGACCGGTTTTCCCGGTAATCCGTATTTGAC (site ACACATGCTGT)” is lower in “recombinant UMI read abundance (log10)” value: 0.331 for the first, 0 for the second.

First: ACACATTCATGGACCGGTTTTCCCGGTAATCCGTATTTGAC (site ACACATTCTGT)
Second: ACACCAGCATGGACCGGTTTTCCCGGTAATCCGTATTTGAT (site ACACCAGCTAT)
The “recombinant UMI read abundance (log10)” value of the first is higher: 2.74 for the first, 2.01 for the second.

Going from “ACACCCACATGGACCGGTTTTCCCGGTAATCCGTATTTGAG (site ACACCCACTCT)” to “ACACGAACATGGACCGGTTTTCCCGGTAATCCGTATTTGTC (site AAACGAACTGA)”, the “recombinant UMI read abundance (log10)” value falls from 1.37 to 0.

Compared with “ACACGAACATGGACCGGTTTTCCCGGTAATCCGTATTTGTC (site ACAAGAACTGA)”, “ACACGAACATGGACCGGTTTTCCCGGTAATCCGTATTTGTC (site ACACAAACTGA)” is higher in “recombinant UMI read abundance (log10)” value: 0 for the first, 1.4 for the second.
